Measured values: patent US7928135B2, “Benzene, pyridine, and pyridazine derivatives” (Serenex, Inc., priority 2005, dated 2011)

Each molecule was assayed on PC-3 cell proliferation (assay: Cell proliferation assay (WST-1), PC-3). Details: Homo sapiens; PC-3 cells, WST-1 readout; read-out: inhibitory activity against PC-3 cell proliferation (IC50 range).
Type: cell-based
Method: A panel of cancer cell lines was obtained from the DCTP Tumor Repository, National Cancer Institute (Frederick, Md.) or ATCC (Rockville, Md.). Cell cultures were maintained in Hyclone RPMI 1640 medium (Logan, Utah) supplemented with 10% fetal bovine serum and 20 mM HEPES buffer, final pH 7.2, at 37° C. with a 5% CO2 atmosphere. Cultures were maintained at sub-confluent densities. Human umbilical vein endothelial cells (HUVEC) were purchased from Clonetics, a division of Cambrex (Walkersville, Md.). Cultures were established from cryopreserved stocks using Clonetics EGM-2 medium supplemented with 20 mM HEPES, final pH 7.2, at 37° C. with a 5% CO2 atmosphere.
For proliferation assays, cells were seeded with the appropriate medium into 96 well plates at 1,000-2,500 cells per well, depending on the cell line, and were incubated overnight. The following day, test compound, DMSO solution (negative control), or Actinomycin D (positive control) was added to the appropriate wells as 10× concentrated stocks prepared in phosphate buffered saline. The cell plates were then incubated for an additional 2-5 days, depending on the cell line, to allow proliferation to occur. To measure cell density, 50 μL of WST-1 solution (Roche Applied Science, Ind.) diluted 1:5 in phosphate buffered saline was added to each well, and the cells incubated for an additional 1-5 hrs., again depending on the cell line. Optical density was determined for each well at […] using a Tecan GeniosPro plate reader (RTP, NC). The percentage of cell growth was determined by comparing the cell growth in the presence of test compounds to the cells treated with DMSO vehicle (control, 100% growth) and cells treated with Actinomycin D (10 μM, 0% growth). […]

| IC50 | SMILES |
| --- | --- |
| 500 to 5000 nM | CN(C)S(=O)(=O)CCNc1cc(-n2nc(C(F)(F)F)c3c2CC(C)(C)CC3=O)ccc1C(N)=O [Compound 136, 2-({2-[(dimethylamino)sulfonyl]ethyl}amino)-4-[6,6-dimethyl-4-oxo-3-(trifluoromethyl)-4,5,6,7-tetrahydro-1H-indazol-1-yl]benzamide] |

What follows are molecules tested on HSP-90 (heat shock protein 90) (assay: Determination of affinity for HSP-90 (elution from purine affinity column, SDS-PAGE densitometry)). Details: elution of HSP-90 from purine affinity column with 20, 100 and 500 μM test compound.
Type: binding
Parameters: key: +++: very high; ++: high; +: moderate
Method: Affinity of test compounds for HSP-90 was determined as follows: Protein mixtures obtained from a variety of organ tissues (for example: spleen, liver and lung) were reversibly bound to a purine affinity column to capture purine-binding proteins, especially HSP-90. The purine affinity column was washed several times, and then eluted with 20 μM, 100 μM, and 500 μM of test compound. Compounds of Formula I elute HP-90 in a dose-dependent manner vs. a control elution using dimethylsulfoxide. The elution profile of Formula I compounds was determined by 1-dimensional SDS polyacrylamide gel electrophoresis. Gels were stained with a fluorescent stain such as sypro ruby (a highly sensitive fluorescent protein stain that can readily detect less than 1 fmol of total protein, i.e., less than 0.04 ng for a 40 kDa protein) or silver nitrate. The gels were imaged using a standard flat bed gel imager and the amount of protein estimated by densitometry. The percent of HSP-90 protein eluted from the column at each concentration was determined and IC50 values were calculated from these estimates. The identity of a band containing HSP-90 was determined by protein sequencing using mass spectroscopy.
Compounds of the invention are inhibitors of HSP-90 (heat shock protein 90). Several exemplary compounds useful in the methods of the invention are listed below.

| relative binding affinity to HSP-90 | SMILES |
| --- | --- |
| ++ | CC1(C)CC(=O)c2c(C(F)(F)F)nn(-c3ccc(C(N)=O)c(NCC(O)CO)c3)c2C1 (stereo not drawn) [Compound 30, 2-(2,3-Dihydroxy-propylamino)-4-(6,6-dimethyl-4-oxo-3-trifluoromethyl-4,5,6,7-tetrahydro-indazol-1-yl)-benzamide] |
| +++ | CC1(C)CC(=O)c2c(C(F)F)nn(-c3ccc(C(N)=O)c(NC4CCSCC4)c3)c2C1 [Compound 32, 4-(3-Difluoromethyl-6,6-dimethyl-4-oxo-4,5,6,7-tetrahydro-indazol-1-yl)-2-(tetrahydro-thiopyran-4-ylamino)-benzamide] |
| ++ | Cc1nn(-c2ccc(C(N)=O)c(NCCCN3CCCC3=O)c2)c2c1C(=O)CC(C)(C)C2 [Compound 34, 2-[3-(2-Oxo-pyrrolidin-1-yl)-propylamino]-4-(3,6,6-trimethyl-4-oxo-4,5,6,7-tetrahydro-indazol-1-yl)-benzamide] |
| +++ | C=CCNc1cc(-n2cc(C)c3c2CC(C)(C)CC3=O)ccc1C(N)=O [Compound 50, 2-(allylamino)-4-(3,6,6-trimethyl-4-oxo-4,5,6,7-tetrahydroindol-1-yl)benzamide] |
| + | Cc1cn(-c2ccc(C(N)=O)c(NC3CCc4ccccc43)c2)c2c1C(=O)CC(C)(C)C2 (stereo not drawn) [Compound 54, 2-(2,3-dihydro-1H-inden-1-ylamino)-4-(3,6,6-trimethyl-4-oxo-4,5,6,7-tetrahydroindol-1-yl)benzamide] |
| + | Cc1cc2c(n1-c1ccc(C(N)=O)c(Nc3ccc(Cl)cc3)c1)CC(C)(C)CC2=O [Compound 73, 2-[(4-chlorophenyl)amino]-4-(2,6,6-trimethyl-4-oxo-4,5,6,7-tetrahydro-1H-indol-1-yl)benzamide] |
| +++ | Cc1cc2c(n1-c1cnc(C(N)=O)c(Nc3ccccc3)c1)CC(C)(C)CC2=O [Compound 75, 3-anilino-5-(2,6,6-trimethyl-4-oxo-4,5,6,7-tetrahydro-1H-indol-1-yl)pyridine-2-carboxamide] |
| + | Cc1cc2c(n1-c1ccc(C(N)=O)c(N[C@H](C(=O)O)C(C)C)c1)CC(C)(C)CC2=O [Compound 78, N-[2-(aminocarbonyl)-5-(2,6,6-trimethyl-4-oxo-4,5,6,7-tetrahydro-1H-indol-1-yl)phenyl]-L-valine] |
| + | Cc1cc2c(n1-c1ccc(C(N)=O)c(N3CCOCC3)c1)CC(C)(C)CC2=O [Compound 79, 2-morpholin-4-yl-4-(2,6,6-trimethyl-4-oxo-4,5,6,7-tetrahydro-1H-indol-1-yl)benzamide] |
| + | Cc1cc2c(n1-c1ccc(C(N)=O)c(-n3ccnc3)c1)CC(C)(C)CC2=O [Compound 80, 2-(1H-imidazol-1-yl)-4-(2,6,6-trimethyl-4-oxo-4,5,6,7-tetrahydro-1H-indol-1-yl)benzamide] |
| +++ | CCn1nccc1Nc1cc(-n2c(C)cc3c2CC(C)(C)CC3=O)ccc1C(N)=O [Compound 83, 2-[(1-ethyl-1H-pyrazol-5-yl)amino]-4-(2,6,6-trimethyl-4-oxo-4,5,6,7-tetrahydro-1H-indol-1-yl)benzamide] |
| ++ | COc1cc(Nc2cc(-n3ccc4c3CCCC4=O)ccc2C(N)=O)cc(OC)c1OC [Compound 86, 4-(4-oxo-4,5,6,7-tetrahydro-1H-indol-1-yl)-2-[(3,4,5-trimethoxyphenyl)amino]benzamide] |
| ++ | COc1ccc(Nc2cc(-n3c(C)cc4c3CC(C)(C)CC4=O)ccc2C(N)=O)cn1 [Compound 87, 2-[(6-methoxypyridin-3-yl)amino]-4-(2,6,6-trimethyl-4-oxo-4,5,6,7-tetrahydro-1H-indol-1-yl)benzamide] |
| ++ | C=CCNc1cc(-n2ccc3c2CCCC3=O)ccc1C(N)=O [Compound 88, 2-(allylamino)-4-(4-oxo-4,5,6,7-tetrahydro-1H-indol-1-yl)benzamide] |
| ++ | C=CCNc1cc(-n2c(C)c(C)c3c2CCCC3=O)ccc1C(N)=O [Compound 91, 2-(allylamino)-4-(2,3-dimethyl-4-oxo-4,5,6,7-tetrahydro-1H-indol-1-yl)benzamide] |
| ++ | COCCNc1cc(-n2c(C)c(C)c3c2CCCC3=O)ccc1C(N)=O [Compound 92, 4-(2,3-dimethyl-4-oxo-4,5,6,7-tetrahydro-1H-indol-1-yl)-2-[(2-methoxyethyl)amino]benzamide] |
| +++ | COCCNc1cc(-n2nc(C)c3c2CC(C)(C)CC3=O)ccc1C(N)=O [Compound 95, 2-[(2-methoxyethyl)amino]-4-(3,6,6-trimethyl-4-oxo-4,5,6,7-tetrahydro-1H-indazol-1-yl)benzamide] |
| +++ | Cc1cn(-c2ccc(C(N)=O)c(NCCN3CCOCC3)c2)c2c1C(=O)CC(C)(C)C2 [Compound 96, 2-[(2-morpholin-4-ylethyl)amino]-4-(3,6,6-trimethyl-4-oxo-4,5,6,7-tetrahydro-1H-indol-1-yl)benzamide] |
| ++ | COc1cc(Nc2cc(-n3nc(C(F)(F)F)c4c3CC(C)(C)CC4=O)ccc2C(N)=O)cc(OC)c1OC [Compound 107, 4-[6,6-dimethyl-4-oxo-3-(trifluoromethyl)-4,5,6,7-tetrahydro-1H-indazol-1-yl]-2-[(3,4,5-trimethoxyphenyl)amino]benzamide] |
| ++ | Cc1cn(-c2ccc(C(N)=O)c(NC3CCN(C(=O)CN(C)C)CC3)c2)c2c1C(=O)CC(C)(C)C2 [Compound 109, 2-{[1-(N,N-dimethylglycyl)piperidin-4-yl]amino}-4-(3,6,6-trimethyl-4-oxo-4,5,6,7-tetrahydro-1H-indol-1-yl)benzamide] |
| +++ | CC(=O)OCC(=O)NCCNc1cc(-n2cc(C)c3c2CC(C)(C)CC3=O)ccc1C(N)=O [Compound 111, 2-[(2-{[2-(aminocarbonyl)-5-(3,6,6-trimethyl-4-oxo-4,5,6,7-tetrahydro-1H-indol-1-yl)phenyl]amino}ethyl)amino]-2-oxoethyl acetate] |
| +++ | Cc1nn(-c2ccc(C(N)=O)c(Nc3ccc(=O)[nH]c3)c2)c2c1C(=O)CC(C)(C)C2 [Compound 115, 2-[(6-oxo-1,6-dihydropyridin-3-yl)amino]-4-(3,6,6-trimethyl-4-oxo-4,5,6,7-tetrahydro-1H-indazol-1-yl)benzamide] |
| ++ | Cc1nn(-c2ccc(C(N)=O)c(NC3CN(S(C)(=O)=O)C3)c2)c2c1C(=O)CC(C)(C)C2 [Compound 131, 2-{[1-(methylsulfonyl)azetidin-3-yl]amino}-4-(3,6,6-trimethyl-4-oxo-4,5,6,7-tetrahydro-1H-indazol-1-yl)benzamide] |
| +++ | Cc1nn(-c2ccc(C(N)=O)c(NCCCS(C)(=O)=O)c2)c2c1C(=O)CC(C)(C)C2 [Compound 132, 2-{[3-(methylsulfonyl)propyl]amino}-4-(3,6,6-trimethyl-4-oxo-4,5,6,7-tetrahydro-1H-indazol-1-yl)benzamide] |
| ++ | C=CCCc1nn(-c2ccc(C(N)=O)cc2)c2c1C(=O)CC(C)(C)C2 [Compound 134, 4-(3-but-3-en-1-yl-6,6-dimethyl-4-oxo-4,5,6,7-tetrahydro-1H-indazol-1-yl)benzamide] |
| +++ | Cc1nn(-c2ccc(C(N)=O)c(N[C@H]3CCN(S(C)(=O)=O)C3)c2)c2c1C(=O)CC(C)(C)C2 [Compound 135, 2-{[(3S)-1-(methylsulfonyl)pyrrolidin-3-yl]amino}-4-(3,6,6-trimethyl-4-oxo-4,5,6,7-tetrahydro-1H-indazol-1-yl)benzamide] |
